Converted amounts (≈) assume the structure as drawn.
What was measured:
Test in all cases: in vitro antibacterial evaluation, MIC by broth dilution
Assay type in all cases: cell-based
Staphylococcus sp. = conditions: broth dilution, 18 hours at 35° C.
Procedure, shortened: (§1)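 Broth dilution per NCCLS M7-A2 in Mueller-Hinton II medium, inoculum 5×10^5 CFU/mL, antibiotic range 64-0.06 μg/mL. MIC taken as lowest concentration inhibiting growth; Gram-positive panel includes recent clinical isolates resistant to methicillin, penicillin and/or vancomycin.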

Streptococcus sp. = conditions: broth dilution, 18 hours at 35° C.
Procedure, shortened: as §1

Enterococcus sp. = conditions: broth dilution, 18 hours at 35° C.
Procedure, shortened: as §1

Escherichia coli = conditions: 18 hours at 35° C.

MIC Coagulase Negative Staphylococcus (GC 4547) (Staphylococcus sp.): 2 µg/mL (≈ 1.41 µM)
MIC Coagulase Negative Staphylococcus (GC 4548) (Staphylococcus sp.): 2 µg/mL (≈ 1.41 µM)
MIC Coagulase Negative Staphylococcus (GC 4549) (Staphylococcus sp.): 1 µg/mL (≈ 0.707 µM)
MIC Coagulase Negative Staphylococcus (GC 4551) (Staphylococcus sp.): 4 µg/mL (≈ 2.83 µM)
MIC Coagulase Negative Staphylococcus (GC 6257) (Staphylococcus sp.): 2 µg/mL (≈ 1.41 µM)
MIC Staphylococcus aureus (ATCC 29213) (Staphylococcus sp.): 4 µg/mL (≈ 2.83 µM)
MIC Staphylococcus aureus (GC 1131) (Staphylococcus sp.): 4 µg/mL (≈ 2.83 µM)
MIC Staphylococcus aureus (GC 3051) (Staphylococcus sp.): 4 µg/mL (≈ 2.83 µM)
MIC Staphylococcus aureus (GC 3053) (Staphylococcus sp.): 8 µg/mL (≈ 5.65 µM)
MIC Staphylococcus aureus (GC 4541) (Staphylococcus sp.): 4 µg/mL (≈ 2.83 µM)
MIC Staphylococcus aureus (GC 4542) (Staphylococcus sp.): 4 µg/mL (≈ 2.83 µM)
MIC Staphylococcus aureus (GC 4544) (Staphylococcus sp.): 4 µg/mL (≈ 2.83 µM)
MIC Staphylococcus aureus (GC 4545) (Staphylococcus sp.): 4 µg/mL (≈ 2.83 µM)
MIC Staphylococcus aureus-SMITH (GC 4543) (Staphylococcus sp.): 4 µg/mL (≈ 2.83 µM)
MIC Staphylococcus aureus (ATCC 29213) (Staphylococcus sp.; strain ATCC 29213): 4 µg/mL (≈ 2.83 µM)
MIC Staphylococcus aureus (GC 1131) (Staphylococcus sp.; strain GC 1131): 4 µg/mL (≈ 2.83 µM)
MIC Staphylococcus aureus (GC 3051) (Staphylococcus sp.; strain GC 3051): 4 µg/mL (≈ 2.83 µM)
MIC Staphylococcus aureus (GC 3053) (Staphylococcus sp.; strain GC 3053): 8 µg/mL (≈ 5.65 µM)
MIC Staphylococcus aureus (GC 4541) (Staphylococcus sp.; strain GC 4541): 4 µg/mL (≈ 2.83 µM)
MIC Staphylococcus aureus (GC 4542) (Staphylococcus sp.; strain GC 4542): 4 µg/mL (≈ 2.83 µM)
MIC Staphylococcus aureus-SMITH (GC 4543) (Staphylococcus sp.; strain GC 4543): 4 µg/mL (≈ 2.83 µM)
MIC Staphylococcus aureus (GC 4544) (Staphylococcus sp.; strain GC 4544): 4 µg/mL (≈ 2.83 µM)
MIC Staphylococcus aureus (GC 4545) (Staphylococcus sp.; strain GC 4545): 4 µg/mL (≈ 2.83 µM)
MIC Coagulase Negative Staphylococcus (GC 4547) (Staphylococcus sp.; strain GC 4547): 2 µg/mL (≈ 1.41 µM)
MIC Coagulase Negative Staphylococcus (GC 4548) (Staphylococcus sp.; strain GC 4548): 2 µg/mL (≈ 1.41 µM)
MIC Coagulase Negative Staphylococcus (GC 4549) (Staphylococcus sp.; strain GC 4549): 1 µg/mL (≈ 0.707 µM)
MIC Coagulase Negative Staphylococcus (GC 4551) (Staphylococcus sp.; strain GC 4551): 4 µg/mL (≈ 2.83 µM)
MIC Coagulase Negative Staphylococcus (GC 6257) (Staphylococcus sp.; strain GC 6257): 2 µg/mL (≈ 1.41 µM)
MIC Streptococcus agalactiae (GC 4564) (Streptococcus sp.): 2 µg/mL (≈ 1.41 µM)
MIC Streptococcus pneumoniae (ATCC 6301) (Streptococcus sp.): 0.5 µg/mL (≈ 0.353 µM)
MIC Streptococcus pneumoniae (GC 1894) (Streptococcus sp.): 0.5 µg/mL (≈ 0.353 µM)
MIC Streptococcus pneumoniae (GC 4565) (Streptococcus sp.): 1 µg/mL (≈ 0.707 µM)
MIC Streptococcus pyogenes (GC 4563) (Streptococcus sp.): 2 µg/mL (≈ 1.41 µM)
MIC Streptococcus pneumoniae (ATCC 6301) (Streptococcus sp.; inoculum 5×10^5 CFU/mL, strain ATCC 6301): 0.5 µg/mL (≈ 0.353 µM)
MIC Streptococcus pneumoniae (GC 1894) (Streptococcus sp.; inoculum 5×10^5 CFU/mL, strain GC 1894): 0.5 µg/mL (≈ 0.353 µM)
MIC Streptococcus pyogenes (GC 4563) (Streptococcus sp.; inoculum 5×10^5 CFU/mL, strain GC 4563): 2 µg/mL (≈ 1.41 µM)
MIC Streptococcus agalactiae (GC 4564) (Streptococcus sp.; inoculum 5×10^5 CFU/mL, strain GC 4564): 2 µg/mL (≈ 1.41 µM)
MIC Streptococcus pneumoniae (GC 4565) (Streptococcus sp.; inoculum 5×10^5 CFU/mL, strain GC 4565): 1 µg/mL (≈ 0.707 µM)
MIC Enterococcus avium (GC 4558) (Enterococcus sp.): 32 µg/mL (≈ 22.6 µM)
MIC Enterococcus faecalis (ATCC 29212) (Enterococcus sp.): 32 µg/mL (≈ 22.6 µM)
MIC Enterococcus faecalis (GC 2242) (Enterococcus sp.): 16 µg/mL (≈ 11.3 µM)
MIC Enterococcus faecalis (GC 2691) (Enterococcus sp.): 32 µg/mL (≈ 22.6 µM)
MIC Enterococcus faecalis (GC 3059) (Enterococcus sp.): 32 µg/mL (≈ 22.6 µM)
MIC Enterococcus faecalis (GC 4552) (Enterococcus sp.): 32 µg/mL (≈ 22.6 µM)
MIC Enterococcus faecalis (GC 4553) (Enterococcus sp.): 32 µg/mL (≈ 22.6 µM)
MIC Enterococcus faecalis (GC 4554) (Enterococcus sp.): 32 µg/mL (≈ 22.6 µM)
MIC Enterococcus faecalis (GC 6189) (Enterococcus sp.): 64 µg/mL (≈ 45.2 µM)
MIC Enterococcus faecium (GC 2243) (Enterococcus sp.): 16 µg/mL (≈ 11.3 µM)
MIC Enterococcus faecium (GC 4556) (Enterococcus sp.): 32 µg/mL (≈ 22.6 µM)
MIC Enterococcus faecium (GC 4557) (Enterococcus sp.): 4 µg/mL (≈ 2.83 µM)
MIC Enterococcus faecalis (ATCC 29212) (Enterococcus sp.; inoculum 5×10^5 CFU/mL, strain ATCC 29212): 32 µg/mL (≈ 22.6 µM)
MIC Enterococcus faecalis (GC 2242) (Enterococcus sp.; inoculum 5×10^5 CFU/mL, strain GC 2242): 16 µg/mL (≈ 11.3 µM)
MIC Enterococcus faecium (GC 2243) (Enterococcus sp.; inoculum 5×10^5 CFU/mL, strain GC 2243): 16 µg/mL (≈ 11.3 µM)
MIC Enterococcus faecalis (GC 2691) (Enterococcus sp.; inoculum 5×10^5 CFU/mL, strain GC 2691): 32 µg/mL (≈ 22.6 µM)
MIC Enterococcus faecalis (GC 3059) (Enterococcus sp.; inoculum 5×10^5 CFU/mL, strain GC 3059): 32 µg/mL (≈ 22.6 µM)
MIC Enterococcus faecalis (GC 4552) (Enterococcus sp.; inoculum 5×10^5 CFU/mL, strain GC 4552): 32 µg/mL (≈ 22.6 µM)
MIC Enterococcus faecalis (GC 4553) (Enterococcus sp.; inoculum 5×10^5 CFU/mL, strain GC 4553): 32 µg/mL (≈ 22.6 µM)
MIC Enterococcus faecalis (GC 4554) (Enterococcus sp.; inoculum 5×10^5 CFU/mL, strain GC 4554): 32 µg/mL (≈ 22.6 µM)
MIC Enterococcus faecium (GC 4556) (Enterococcus sp.; inoculum 5×10^5 CFU/mL, strain GC 4556): 32 µg/mL (≈ 22.6 µM)
MIC Enterococcus faecium (GC 4557) (Enterococcus sp.; inoculum 5×10^5 CFU/mL, strain GC 4557): 4 µg/mL (≈ 2.83 µM)
MIC Enterococcus avium (GC 4558) (Enterococcus sp.; inoculum 5×10^5 CFU/mL, strain GC 4558): 32 µg/mL (≈ 22.6 µM)
MIC Enterococcus faecalis (GC 6189) (Enterococcus sp.; inoculum 5×10^5 CFU/mL, strain GC 6189): 64 µg/mL (≈ 45.2 µM)
MIC Escherichia coli (ATCC 25922) (Escherichia coli): >64 µg/mL
MIC Escherichia coli (GC 4559) (Escherichia coli): 64 µg/mL (≈ 45.2 µM)
MIC Escherichia coli (GC 4560) (Escherichia coli): 2 µg/mL (≈ 1.41 µM)
SMILES: COc1ccc(COCC2OC(OC3C(CO)OC(Oc4ccc(CC5NC(=O)C(C(C)c6ccccc6)NC(=O)CNC(=O)C(CO)NC(=O)C(C(O)C6CNC(=N)N6C6OC(CO)C(O)C(O)C6O)NC(=O)C(C(O)C6CNC(=N)N6)NC5=O)cc4)C(O)C3O)C(O)C(O)C2O)cc1 (stereo not shown) [Example 232]
MIC Staphylococcus haemolyticus (GC 4546) (Staphylococcus sp.): 2 µg/mL (≈ 1.41 µM)
MIC Staphylococcus haemolyticus (GC 4546) (Staphylococcus sp.; strain GC 4546): 2 µg/mL (≈ 1.41 µM)
